Measured values reported in doi:10.1101/620765v2 (biorxiv, 2019).
Like-named read-outs stand apart in the source and are kept apart here.

Legend:
[1] = target: T1, purified αVβ5 (R&D Systems) (Homo sapiens, UniProt P06756+P18084); test: inhibition of binding of purified αVβ[…] to immobilized vitronectin, plate assay
[2] = target: T2, human αVβ3 expressed in HEK-293 cells (HEK-αVβ3) (Homo sapiens, UniProt P05106+P06756); test: inhibition of HEK-αVβ[…] cell adhesion to fibronectin; format: cell-based
[3] = target: purified human αVβ3 (R&D Systems) (Homo sapiens, UniProt P05106+P06756); test: biochemical
[4] = target: T1, purified αVβ5 (R&D Systems); details: read-out: IC50 (μM) purified αVβ5 binding to vitronectin; antagonist
[5] = target: T2, human αVβ3 expressed in HEK-293 cells (HEK-αVβ3); test: exposure of mAb AP5; format: cell-based
[6] = target: T2, human αVβ3 expressed in HEK-293 cells (HEK-αVβ3); test: inhibition of HEK-αVβ[…] cell adhesion to immobilized fibrinogen; format: cell-based
[7] = target: T2, human αVβ3 expressed in HEK-293 cells (HEK-αVβ3); test: cell-based; parameters: species or system HEK-293 expressing human αVβ3

Structure (SMILES) | EC50 [5] [nM] | IC50 [6] [nM] | other results
O=C(CCCCc1ccc2c(n1)NCCC2)NCC[C@H](NC(=O)c1nc2ccccc2s1)C(=O)O [G, TDI-4161] |  |  | IC50 [1]: 689 ± 374 nM; IC50 [2]: 42 ± 21 nM; IC50 [3]: 0.012 ± 0.005 µM
COc1ccc(C(CC(=O)O)N2CCN(CCCc3ccc4c(n3)NCCC4)C2=O)cn1 (racemic) [MK-429 racemate] |  |  | IC50 [4]: 0.035 ± 0.019 µM; IC50 ([3]; read-out: IC50 (μM) purified αVβ3 binding to penton base, antagonist): 0.011 ± 0.005 µM
COc1ccc(C(CC(=O)O)N2CCN(CCCc3ccc4c(n3)NCCC4)C2=O)cn1 (racemic) [A, TDI-806] | 12 | 3 | 
O=C(CCCCc1ccc2c(n1)NCCC2)NCC[C@@H](Nc1nc2ccccc2o1)C(=O)O [TDI-4158] | > 10000 | 123 ± 55 | 
O=C(O)CCNC(=O)CCCCc1ccc2c(n1)NCCC2 [C, TDI-1367] | > 10000 | 756 ± 607 | 
O=C(O)CCCNC(=O)CCCCc1ccc2c(n1)NCCC2 [D, TDI-2668] | > 10000 | 1020 | 
O=C(CCCCc1ccc2c(n1)NCCC2)NCCC(Nc1nc2ccccc2o1)C(=O)O (racemic) [E, TDI-3761] |  |  | IC50 [1]: 875 ± 348 nM; IC50 [7]: 172 ± 66 nM; IC50 [2]: 79 ± 10 nM; IC50 [3]: 0.049 ± 0.05 µM

More lines, main results first:

EC50 [5] [nM] | IC50 [6] [nM] | Structure (SMILES) | other results
 | 49 ± 16 | O=C(CCCCc1ccc2c(n1)NCCC2)NCCC(NC(=O)c1nc2ccccc2s1)C(=O)O (racemic) [F, TDI-3909] | 
> 10000 |  | O=C(CCCCc1ccc2c(n1)NCCC2)NCC[C@H](Nc1nc2ccccc2o1)C(=O)O [TDI-4160] | IC50 ([6]; 1 mM Mg2+, 2 mM Ca2+, pH 7.4, room temperature): 185 ± 42 nM
